Assays:
[1] = test system: Rattus norvegicus; assay: Inhibition of prolactin secretion in rat assessed as serum prolactin level at 1 mg, ip after 1 hr by radioimmunoassay relative to control
[2] = test system: Rattus norvegicus; assay: Inhibition of prolactin secretion in rat assessed as serum prolactin level at 10 ug, ip after 1 hr by radioimmunoassay relative to control; format: functional

Row | SMILES | inhibition (INH) [1] [%] | inhibition (INH) [2] [%]
1 | Br.COc1ccc(OC)c2c1CCC(N(C)CCCC#N)C2 (stereo not drawn) | -4 | 
2 | CN1CCc2cccc3c2[C@H]1Cc1ccc(O)c(O)c1-3 [APOMORPHINE] | 29 | 
3 | CN(C)C1CCc2c(ccc(O)c2O)C1 (stereo not drawn) | 68 | 
4 | CNC1CCc2c(OC)ccc(OC)c2C1 (stereo not drawn) | 5 | 
5 | Br.NC1CCc2c(O)ccc(O)c2C1 (stereo not drawn) | -9 | 
6 | Br.CN(CCCC#N)CCc1c[nH]c2ccccc12 | 12 | 
7 | CC(C)[C@H]1C(=O)N2CCC[C@H]2[C@]2(O)O[C@](NC(=O)[C@@H]3C=C4c5cccc6[nH]cc(c56)C[C@H]4N(C)C3)(C(C)C)C(=O)N12 [ERGOCORNINE] |  | 60
8 | Br.CN(C)C1CCc2c(O)ccc(O)c2C1 (stereo not drawn) | 25 | 
9 | COc1ccc(OC)c2c1CCC(N)C2 (stereo not drawn) | 3 | 
10 | CCN(CC)C(=O)CCN(C)CCc1cc(OC)c(C)cc1OC | 10 | 
11 | COc1ccc(OC)c2c1CCC(N(C)C)C2.Cl (stereo not drawn) | -3 | 
12 | CN(CCCC#N)C1CCc2ccccc2C1 (stereo not drawn) | 24 | 
13 | Br.CNC1CCc2c(O)ccc(O)c2C1 (stereo not drawn) | -19 | 
